In patent US6489299B2, “Methods for treatment of multiple sclerosis using peptide analogues at position 91 of human myelin basic protein” (Stanford University Medical Center, priority 1994, dated 2002):
Like-named read-outs stand apart in the source and are kept apart here.

Columns and labels:
[1] = tested on: EAE; assay: Prevention of EAE by co-injection of the peptide analogue with an EAE-inducing peptide; type: in vivo, rat
[2] = tested on: anti MBP (87-99) T cell line L87-99; type: cell-based, rat; conditions: all concentrations, 10^-4 μM to 10^-2 μM analogue; APC prepulsed with 0.2 μM native peptide; FIG. 5
Method: FIG. 5 is a graph illustrating the ability of alanine-substituted analogues to antagonize T cells. […] Results are shown as stimulation index ±SE.
The second or alternative assay is a competition assay for T cell proliferation. In this assay, antigen presenting spleen cells are first irradiated and then incubated with native MBP (87-99) peptide for 2-4 hours. These cells are then washed and further cultured with T cells reactive to MBP (87-99). Various concentrations of candidate peptide analogues are included in cultures for an additional 3 days. Following this incubation period, each culture is pulsed with 1 μCi of [^3H]-thymidine for an additional 12-18 hours. Cultures are then harvested on fiberglass filters and counted as above. Mean CPM and standard error of the mean are calculated from data determined in triplicate cultures. Peptide analogues which inhibit proliferation to approximately 25% at a concentration of 50 μM or greater are suitable for further screening.
T cell antagonism was detected in a prepulsed proliferation assay as described by De Magistris et al. (Cell […]:625, 1992) with minor modifications. […] The cultures were then harvested on fiberglass filters and the proliferative response expressed as CPM±SD or as stimulation index (mean CPM from test cultures divided by mean CPM from control cultures).

[3] = tested on: TNF-α production from draining lymph node cells; assay: TNF-α production by draining lymph node cells (ELISA); type: cell-based, rat; conditions: all doses greater than 20 μM; supernatant after 24 hours; FIG. 7
Method: (§1) FIG. 7 are a pair of graphs showing the amount of IFN-γ and TNF-α production from draining lymph node cells (DLNC). DLNC were stimulated with MBP (87-99) alone (●) or with the peptide analogue (91K>A) (▪).
(§2) Cytokine production in draining lymph node cells from rats injected with MBP (87-99) alone or with the peptide analogue (91K>A) was determined. IFN-γ and TNF-α production were measured.
(§3) Draining lymph node cells (10^7 cells/ml) were stimulated in vitro with different concentrations of MBP (87-99) or peptide analogue. Supernatants were collected after 24 and 48 hours. IFN-γ was determined after 48 hours by use of a rat IFN-γ ELISA kit (GIBCO BRL). TNF-α was measured after 24 hours by ELISA kit (Genzyme Corp., Cambridge, Mass.).

[4] = tested on: lymph node cells (LNC) reactive to MBP (87-99); assay: Antigen-specific lymph node cell proliferation assay; type: cell-based, Lewis rat; conditions: 10 μM peptide, 3 days, [3H]-thymidine; FIG. 4
Method: FIG. 4 is a graph displaying the proliferative response of MBP-reactive lymph node cells to position 91-substituted analogues. Two different substitutions were tested. The proliferative response of lymph node cells to 10 μM of MBP (87-99), motilin, A91 or K91 was determined. Proliferation is shown as counts per minute. BKG, no peptide added; 87-99, MBP (87-99); motilin, an unrelated peptide; A91, peptide analogue with alanine at position 91; K91, peptide analogue with D-lysine at position 91.
As an alternative to the use of T cell lines as described above, draining lymph node cells from Lewis rats immunized with MBP (87-99) may be used. […] Cultures are harvested on fiberglass filters and counted in a scintillation counter. Mean CPM and the standard error of the mean are calculated from data determined in triplicate cultures. […]
For the assay, 100 μl of the lymph node suspension was added to 96-well flat-bottom wells in the presence of an equal volume of medium containing 10 μM of various peptides (including: motilin as a negative control; MBP87-99; medium only, or alanine or D-amino acid substituted at position 91). […] The plates were then harvested with a Matrix filtermate harvester (Packard) and counted using an Automatic Direct Beta Counter (Packard). Mean cpm and the standard error of the mean were calculated from triplicate wells.

[5] = tested on: EAE; conditions: rat, in vivo
Method: In addition, as a safety measure, but not essential to this invention, suitable peptide analogues may be tested for direct induction of EAE. As described in detail in Example 2, various amounts of peptide analogues are injected at the base of the tail of rats, and the rats examined daily for signs of EAE. A peptide analogue which is not considered to cause EAE has a mean cumulative score of less than or equal to 1 over seven days when 1 mg (5 mg/kg) in complete Freund's adjuvant is injected.
MBP peptides and analogues were dissolved in phosphate-buffered saline (PBS) and emulsified with an equal volume of incomplete Freund's adjuvant supplemented with 4 mg/ml heat-killed Mycobacterium tuberculosis H37Ra in oil (Difco Laboratories, Inc., Detroit, Mich.). Rats were immunized subcutaneously in the hind foot pads with 0.1 ml of the emulsion and were monitored for clinical signs daily by an observer blind to the treatment protocol. For intravenous injections MBP peptides and analogues were dissolved in normal saline. EAE was scored as follows: 0, clinically normal; 1, flaccid tail; 2, hind limb paralysis; 3, front and hind limb paralysis.
The ability of peptide analogues to cause EAE is assessed in vivo. Rats were injected with MBP (87-99) or (91K>A) peptide analogue as described in Example 2. Animals were monitored daily for evidence of EAE. Rats receiving MBP (87-99) had 100% incidence (18/18 rats) of EAE with a mean maximum clinical score of 2.4±0.2. In contrast, 0/12 rats receiving the peptide analogue (91k>A) had EAE.

[6] = tested on: IFN-γ production from draining lymph node cells; assay: IFN-γ production by draining lymph node cells (ELISA); type: cell-based, rat; conditions: all doses; supernatant after 48 hours; FIG. 7
Method: as §1, §2, §3

[7] = tested on: EAE; assay: Reversal of EAE induced by adoptive transfer of L87-99 T cells; type: in vivo, rat
[8] = as Peptide 2, co-injected with Peptide 1 MBP(68-88), ratio 1:1
[9] = as Peptide 2, co-injected with Peptide 1 MBP(87-99), ratio 1:1, in complete Freund's adjuvant

CC[C@H](C)[C@H](NC(=O)[C@H](CC(N)=O)NC(=O)[C@H](C)NC(=O)[C@H](Cc1ccccc1)NC(=O)[C@H](Cc1ccccc1)NC(=O)[C@H](Cc1c[nH]cn1)NC(=O)[C@@H](N)C(C)C)C(=O)N[C@H](C(=O)N[C@H](C(=O)N1CCC[C@H]1C(=O)N[C@@H](CCCNC(=N)N)C(=O)N[C@H](C(=O)N1CCC[C@H]1C(=O)O)[C@@H](C)O)[C@@H](C)O)C(C)C [91K>A]
EAE Incidence [1, 8]: 6/6 | EAE Mean Maximum Clinical Score [1, 8]: 3 ± 0 | EAE Incidence [1, 9]: 0/12 | EAE Mean Maximum Clinical Score [1, 9]: 0 | inhibition of induction of EAE by MBP (68-88) (in words) ([1]; co-immunization): not inhibit induction of EAE | inhibition of induction of EAE by MBP (87-99) (in words) ([1]; co-immunization): could specifically inhibit induction of EAE | antagonism of the response of L87-99 to native peptide (in words) [2]: effectively antagonize | TNF-α production (in words) [3]: marked decrease in cytokine production | proliferative response of MBP (87-99)-reactive lymph node cells (in words) [4]: failed to respond as well | EAE Incidence [5]: 0/12 | EAE Mean Maximum Clinical Score [5]: 0 | incidence of EAE (rats with EAE / rats injected) [5]: 0/12 | IFN-γ production (in words) [6]: marked decrease in cytokine production | time to complete remission ([7]; after single injection (2 mg/ml) of soluble analogue): ≤ 36 h | rats going into complete remission without further signs of paralysis ([7]; single injection (2 mg/ml) of soluble analogue to rats with hind limb paralysis, 5 days after 10^7 L87-99 T cells, p<0.015): six out of six
